# Measured values published in patent US20230220047A1, “PEPTIDES FOR TREATMENT OF SEPSIS AND CANCER” (NORWEGIAN UNIVERSITY OF SCIENCE AND TECHNOLOGY (NTNU), priority 2020, published 2023).
# “Also recorded” adds a separate entry of the source.
# What was measured:
# THP-1 cells = test: Viability of acute myeloid leukaemia cell line THP-1; format: cell-based, human; settings: 5-30 μM, 48 h
# Method: THP-1 cells were seeded in medium at 10,000 cells/well, as indicated by the dotted line. Cells were incubated for 48 hours in medium supplemented with water, C3A-Pen, P7-Pen, P7-A4-Pen or P7-N4-Pen. The peptides were included at concentrations ranging from 5-30 μM. At 48 hours cells were counted. […] The results with other peptides were less clear-cut. Results are based on 3 biological replicates, error bars show standard deviation of mean.
# (§1) The peptides were tested against the SW480 cell line in the presence and absence of LPS.
# [1] = system: ANBL-6 multiple myeloma cells; test: CellTiter-Glo cell viability assay, ANBL-6; format: cell-based
# Method: Minor effects on the proliferation of the IH-1 and RPMI 8226 cell lines are seen. Cells were seeded at the level shown (left-hand bar of each set) then incubated in medium containing water, 10 μM penetratin or 10 μM P7-A4-Pen for 48 hr (except for INA-6 cells, which were incubated with 12.5 μM penetratin or 12.5 μM P7-A4-Pen). The number of viable cells was detected based on quantitation of ATP by luminescent signal in correlation to a standard curve prepared for each cell line. Results are based on 3-5 biological replicates for each condition, error bars show standard deviation of mean.
# Cells were seeded and then incubated in growth medium alone or supplemented with water, DMSO, 15 μM penetratin or 15 μM investigational peptide. The growth medium only and H2O—, DMSO- and penetratin-supplemented cultures constituted controls.
# The solid horizontal lines show the amount of cells originally seeded. In (A) ANBL-6 cells were seeded at a level of 10,000 cells/well, then incubated in medium supplemented with water, the control peptide C3A-Pen, P7-Pen, P7-A4-Pen, P7-N4-Pen or P7-K2-Pen for 48 hours. The peptides were included at concentrations of 5, 10, 12.5, 15, 20 or 30 μM. Cells were counted at 48 hours. In (B), ANBL-6 cells were seeded at a level of 5000 cells/well, then incubated in medium supplemented with water, P6-Pen, P-P6-Pen, P7-D4-Pen or P7-A4-Pen for 48 hours. Peptides were included at concentrations of 5, 10 or 20 μM. Cells were counted at 48 hours. […] Results are based on 3 biological replicates, error bars show standard deviation of mean.
# (§2) Multiple myeloma cells JJN-3 (DSMZ (Germany) no. ACC 541), ANBL-6 (Cellosaurus accession number CVCL_5425, obtained from Dr Diane Jelinek, Mayo Clinic, Rochester, Minn.), INA-6 (Cellosaurus accession number CVCL_5209, obtained from Dr M. Gramatzki, University of Erlangen-Nurnberg, Erlangen, Germany), RPMI-8226 (ATCC CCL-155), and IH-1 (Cellosaurus accession number CVCL_WZ44, established from the pleural effusion of a myeloma patient by Myeloma research group, IKOM, NTNU, Trondheim, Norway) were grown in RPMI-1640 (Sigma-Aldrich Norway, Oslo, Norway) supplemented with 100 nM penicillin/streptomycin and 10% FCS, and for ANBL-6, IH-1 and INA-6 cells 2 ng/ml recombinant IL-6 (Gibco, Thermo Fisher Scientific, Waltham, Mass., USA). Murine multiple myeloma Vk*MYC cells were obtained from M.D. Leif Bergsagel (Mayo Clinic, Richester, Minn., USA) and cultured in RPMI-1640 supplemented with 2% human serum (B^+, The blood bank, St Olav's Hospital, Trondheim, Norway), 100 nM penicillin/streptomycin, L-Glutamine (2 mM) and recombinant IL-6 (1 ng/ml). HEK293T (ATCC CRL-3216) were cultured in DMEM with 10% FCS. THP-1 TRAM knockout (KO) and TLR4 KO cell lines, and matching lentivirally transduced control cell lines, were differentiated in the same way as wild type (WT) THP-1. TRAM KO THP-1 cell line is described in Yurchenko et al. (supra).
# To evaluate the potential impact of the P7 peptide on proliferation of tumour cells of lymphoid origin, we performed a CellTiter-Glo Luminescent Cell Viability Assay to address proliferation of several multiple myeloma (MM) cell lines. For the assay, cells were incubated for 48 h in respective media containing either solvent (water), 10 μM control peptide (Pen) or the SLAMF1-derived peptide P7-A4-Pen for 48 h (FIG. 32) (with the exception of the INA-6 cells which were incubated with 12.5 μM control peptide or P7-A4-Pen). […] This effect could be mediated by P7-A4-Pen-induced inhibition of signalling pathways that are crucial for driving proliferation and/or survival of MM tumour cells.
# SW480 cells = test: Proliferation of SW480 colon cancer cells; format: cell-based, human; settings: 15 μM, 48 h, with or without LPS 100 ng/ml
# Method: SW480 cells were seeded and incubated in medium alone or supplemented with water, 15 μM penetratin, 15 μM P7-Pen or 15 μM P7-N4-Pen. Under each condition cells were incubated both without LPS and with 100 ng/ml LPS. Cells were incubated for 48 hours then counted. […] The presence of LPS made no difference to the effect of the peptides on proliferation. Results are based on 3 biological replicates, error bars show standard deviation of mean.
# (§3) SW480 (ATCC CCL-228) and Jurkat (ATCC Clone E6-1; TIB-152) cells were cultured in RPMI 1640 (Sigma-Aldrich, Schnelldorf, Germany) supplemented with 10% heat-inactivated FCS, penicillin/streptomycin (Life Technologies) and 20 mM L-Glutamine. THP-1 cells (ATCC TIB-202) were cultured in RPMI-1640 (high-glucose, ATCC) supplemented with 10% heat inactivated foetal calf serum (FCS), 100 nM penicillin/streptomycin and 5 μM β-mercaptoethanol (Sigma). THP-1 cells were differentiated with 60 ng/ml phorbol 12-myristate 13-acetate (PMA, Sigma) for 72 h, followed by 24 or 48 h in medium without PMA.
# as §1
# Jurkat cells = test: Proliferation of Jurkat T cell leukaemia cells; format: cell-based, human; settings: 15 μM or 20 μM, 48 h
# Method: Jurkat cells were seeded at 5000 cells/well (as indicated by dotted line) and incubated in medium supplemented with water, penetratin, P7-Pen or P7-N4-Pen. Peptides were included at 15 μM (A) or 20 μM (B). Cells were incubated for 48 hours then counted. […] Results are based on 3 biological replicates, error bars show standard deviation of mean.
# as §3, §1
# [2] = system: primary Vk*MYC multiple myeloma cells; test: Primary Vk*MYC multiple myeloma cells; format: cell-based, mouse; settings: 7.5 or 15 μM, 48 h
# Method: Isolated primary cells were seeded then incubated for 48 hours in growth medium supplemented with water, penetratin, P7-Pen, P7-A4-Pen or P7-N4-Pen, then counted. Peptides were included at concentrations of 7.5 or 15 μM. […] Results are based on 3 biological replicates, error bars show standard deviation of mean.
# as §2
# Primary multiple myeloma cells were isolated from Vk*Myc mice and provided by the Multiple Myeloma Research Group, IKOM, NTNU. The peptides P7-Pen, P7-N4-Pen and P7-A4-Pen were applied to the cultured primary cells and effect of the peptides on cell growth analysed as previously.
# [3] = system: JJN-3 multiple myeloma cells; format: cell-based, human; settings: JJN-3, 4 μM peptide
# Source text: Minor effects on the proliferation of the IH-1 and RPMI 8226 cell lines are seen. […] The number of viable cells was detected based on quantitation of ATP by luminescent signal in correlation to a standard curve prepared for each cell line. Results are based on 3-5 biological replicates for each condition, error bars show standard deviation of mean.
# as §2
# To evaluate the potential impact of the P7 peptide on proliferation of tumour cells of lymphoid origin, we performed a CellTiter-Glo Luminescent Cell Viability Assay to address proliferation of several multiple myeloma (MM) cell lines. […]
substance,measurement,setting,value
Ac-ITVNASVTLTGRQIKIWFQNRRMKWKK-NH2 [Peptide P7-N4-Pen],effect on THP-1 cell number,THP-1 cells,clear dose-dependent cytotoxic effect; also recorded: anti-proliferative effect
same,effect on proliferation of ANBL-6 cells,[1]; 15 μM,anti-proliferative effect
same,anti-proliferative activity over a concentration series,"[1]; 5, 10, 12.5, 15, 20 and 30 μM or 5, 10 and 20 μM, 48 h",clear concentration-dependent effect
same,effect on proliferation of SW480 cells,SW480 cells,a degree of anti-proliferative effect
same,effect on proliferation of Jurkat cells,Jurkat cells,modest but clear anti-proliferative effect
same,effect on primary multiple myeloma cells,[2],strong cytotoxic effect
same,combination effect with melphalan at low melphalan concentrations,[3],synergistic effect
